PubChem BioAssay (NCI)
Several values for one entry are separate records, joined by “and”; a condition that tells them apart may be missing. Identical values can stand only once.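 In this assay, cells in 96-well plates receive the compound at five concentrations for 48 hours. Endpoints are linearly interpolated between the surrounding concentrations. Here, GI50 denotes the concentration required for 50% inhibition of growth. TGI: concentration producing complete growth inhibition.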

Assays:
Assay in all cases: NCI-60 cell line screen, 48 h
SW-620 colon = test system: SW-620 colon
OVCAR-5 ovarian = test system: OVCAR-5 ovarian
RXF 393 renal = test system: RXF 393 renal
SK-MEL-2 melanoma = test system: SK-MEL-2 melanoma
HL-60(TB) leukemia = test system: HL-60(TB) leukemia
LOX IMVI melanoma = test system: LOX IMVI melanoma
NCI-H226 lung = test system: NCI-H226 lung
PC-3 prostate = test system: PC-3 prostate
SK-OV-3 ovarian = test system: SK-OV-3 ovarian
MDA-MB-435 = test system: MDA-MB-435

Compound | TGI (SW-620 colon) [µM] | TGI (OVCAR-5 ovarian) [µM] | TGI (RXF 393 renal) [µM] | TGI (SK-MEL-2 melanoma) | TGI (HL-60(TB) leukemia) [µM] | TGI (LOX IMVI melanoma) [µM] | TGI (NCI-H226 lung) [µM] | TGI (PC-3 prostate) [µM] | TGI (SK-OV-3 ovarian) [µM] | TGI (MDA-MB-435) | GI50 (MDA-MB-435) [µM] | GI50 (SK-OV-3 ovarian) [µM] | GI50 (NCI-H226 lung) [µM]
CC1CCN(c2cc(-c3cc4ccccc4o3)oc(=O)c2C#N)CC1 | > 100 | > 100 | > 100 | > 100 µM | > 100 | > 100 | > 100 | – | – | – | – | – | –
CC1=C2CC(C)(C)CC(=O)C2(C)CCC1=O (stereo not drawn) | > 100 | > 100 | – | > 100 µM | > 100 | > 100 | > 100 | > 100 | > 100 | – | – | – | –
CC(=O)Nc1sccc1S(=O)(=O)c1ccc(Cl)cc1 | > 100 | > 100 | > 100 | > 100 µM | > 100 | – | > 100 | > 100 | > 100 | > 100 µM | – | – | –
Cc1cc(C)c(S(=O)(=O)N(CCCN)OCCCN)c(C)c1 | > 100 | > 100 | > 100 | > 100 µM | – | > 100 | > 100 | > 100 | > 100 | > 100 µM | – | – | –
CC(=O)O[C@H]1C[C@@H](OC(C)=O)[C@@](C)(O)[C@@H]2[C@@H](OC(C)=O)[C@@]3(O)[C@H](/C=C(/CCl)[C@H]4O[C@H]4[C@@H](OC(C)=O)[C@@]12C)OC(=O)[C@@H]3C | > 25 | > 25 | > 25 | > 25 µM | – | > 25 | > 25 | > 25 | > 25 | > 25 µM | – | – | –
COc1cccc(-c2[nH]c3cc4c(cc3c(=O)c2C(=O)O)OCO4)c1 | > 100 | > 100 | > 100 | > 100 µM | – | > 100 | > 100 | > 100 | – | > 100 µM | – | – | –
CC(=O)Oc1ccc2cc(Oc3ccccc3)c(=O)oc2c1 | > 100 | > 100 | > 100 | – | > 100 | > 100 | > 100 | > 100 | – | – | – | – | –
O=C1NC2=NN=C(c3ccc(Br)cc3)CN2NC12c1ccccc1-c1ccccc12 | > 100 | > 100 | > 100 | > 100 µM | – | > 100 | > 100 | > 100 | > 100 | > 100 µM | – | – | –
CCCCCC(/C=C/[C@@H]1[C@@H](C(O)CCCCCC(=O)OC)C(=O)C[C@H]1O[Si](C)(C)C(C)(C)C)OCOCCOC (stereo partly drawn) | 29.3 | 48 | 39.8 | 32.4 µM | – | 14.5 | 34.9 | 27.4 | 34 | 27.9 µM | – | – | –
c1csc(C(NC2=NCCO2)C2CC2)c1 (stereo not drawn) | > 100 | > 100 | > 100 | > 100 µM | – | > 100 | > 100 | > 100 | > 100 | – | – | – | –
O=C(/C=C\c1ccc(/C=C/C(=O)Nc2cccc(C3=NCCCN3)c2)cc1)Nc1cccc(C2=NCCCN2)c1 | > 100 | > 100 | > 100 | > 100 µM | > 100 | > 100 | – | – | > 100 | – | – | – | –
N#C[C@H](C(=O)c1ccccc1F)c1nc2ccccc2[nH]1 | > 100 | > 100 | > 100 | > 100 µM | – | > 100 | > 100 | > 100 | > 100 | > 100 µM | – | – | –
O=C1Nc2ccccc2C1S(=O)(=O)c1ccccc1 (stereo not drawn) | > 100 | > 100 | > 100 | > 100 µM | – | > 100 | > 100 | > 100 | > 100 | > 100 µM | – | – | –
COc1cccc(/C=N/[N-]C(N)=O)c1[O-].[OH3+].[Pd+2] | > 100 | > 100 | > 100 | > 100 µM | – | > 100 | > 100 | – | > 100 | – | – | – | –
CO/C(=N\N=C(/c1ccccc1)C(F)(F)F)c1ccncc1 | – | > 100 | > 100 | > 100 µM | > 100 | – | 77.4 | > 100 | > 100 | > 100 µM | – | – | –
O=C1c2ccccc2-n2c1nc1ccc(Cl)cc1c2=O | > 100 | > 100 | 44.8 | > 100 µM | – | > 100 | > 100 | > 100 | > 100 | 31.1 µM | – | – | –
Cc1cc(OC(=O)Nc2ccc(Cl)cc2)ccc1C(=S)Nc1ccccc1 | > 100 | > 100 | – | > 100 µM | 53.7 | > 100 | – | > 100 | > 100 | > 100 µM | – | – | –
C/C(=N\Nc1nc2ccccc2n1C)c1ccc2ccccc2n1 | 25.8 | 11 | 29.3 | > 36 µM | – | 16.6 | 6.83 | – | > 100 | 42.7 µM | – | – | –
CSC1(Cc2ccccn2)C(=O)Nc2cccc([N+](=O)[O-])c21 (stereo not drawn) | > 100 | > 100 | – | > 100 µM | > 100 | > 100 | > 100 | > 100 | > 100 | > 100 µM | – | – | –

Compound | TGI (SW-620 colon) [µM] | TGI (OVCAR-5 ovarian) [µM] | TGI (RXF 393 renal) [µM] | TGI (SK-MEL-2 melanoma) | TGI (HL-60(TB) leukemia) [µM] | TGI (LOX IMVI melanoma) [µM] | TGI (NCI-H226 lung) [µM] | TGI (PC-3 prostate) [µM] | TGI (SK-OV-3 ovarian) [µM] | TGI (MDA-MB-435) | GI50 (MDA-MB-435) [µM] | GI50 (SK-OV-3 ovarian) [µM] | GI50 (NCI-H226 lung) [µM]
COc1ccc(/C=N/n2c(Cc3ccccc3)n[nH]c2=O)cc1 | > 100 | > 100 | – | > 100 µM | – | – | > 100 | > 100 | > 100 | > 100 µM | – | – | –
Clc1cccc(C2SCc3nc4ccccc4n32)c1 (stereo not drawn) | > 100 | 95.6 | 41.7 | – | 31.6 | 30.8 | 33.7 | – | 52.7 | – | – | – | –
CC(=O)Nc1cc(/C=C\C(=O)N2CC(CCl)c3c2cc(N)c2ccccc32)n(C)n1 (stereo not drawn) | > 100 | – | > 100 | 0.0416 µM and 0.0479 µM | 0.0126 | – | – | > 100 | – | 0.0399 µM and 0.0497 µM | 0.0131 | 0.0311 | 0.0173
CO[C@]12C[C@@H](CNC(=O)c3cc(Br)c[nH]3)O[C@H]1NC(=O)N2 | > 100 | > 100 | – | > 100 µM | > 100 | – | > 100 | > 100 | > 100 | > 100 µM | – | – | –
Nc1c(C(=O)c2ccccc2)nnc2ccccc12 | > 100 | > 100 | – | 38.3 µM | – | > 100 | > 100 | 59.6 | – | 60.3 µM | – | – | –
CC1=NN(C(=O)c2ccc(C)cc2)C(=O)C1N=Nc1ccccc1C(=O)O (stereo not drawn) | > 100 | > 100 | > 100 | > 100 µM | > 100 | > 100 | > 100 | – | > 100 | – | – | – | –
CCN(CC)C(=S)S | > 100 | > 100 | > 100 | > 100 µM | 33.3 | > 100 | > 100 | – | > 100 | – | – | – | –
Clc1ccc(-c2nnc(-c3nsc4ccccc34)o2)cc1 | > 100 | > 100 | 99.4 | > 100 µM | – | > 100 | – | – | – | – | – | – | –
CC1(CCCCO)C=CC(S(=O)(=O)c2ccccc2)CC1 (stereo not drawn) | 20.6 | 17.5 | 17 | 23.1 µM | – | 3.65 | 9.03 | 15.1 | 22.7 | 21.8 µM | – | – | –
O=C1CC(=O)NC(=NN2C(=O)/C(=C/c3ccc(Cl)cc3)N=C2c2ccccc2)N1 | 31.9 | 30.2 | 30.1 | 31.1 µM | – | – | 31.5 | 28.2 | 51.8 | 29.1 µM | – | – | –
CCOC(=O)[C@H]1Nc2c(cccc2[N+](=O)[O-])C2c3ccccc3CC21 (stereo partly drawn) | > 100 | > 100 | 45.8 | > 100 µM | – | > 100 | > 100 | – | – | – | – | – | –
COc1cc(S(=O)(=O)Nc2ccc(-c3csc(/N=C\c4cccs4)n3)cc2)ccc1Cl | > 100 | > 100 | – | > 100 µM | – | > 100 | > 100 | > 100 | > 100 | 96.9 µM | – | – | –
O=C(c1ccccc1)c1ccc2nc3n(c2c1)C(c1c(Cl)cccc1Cl)SC3 (stereo not drawn) | > 100 | > 100 | > 100 | 78.5 µM | > 53.5 | 31.6 | > 100 | > 100 | > 30.7 | – | – | – | –
Cn1cnnc1SC(F)(F)c1nc2ccccc2o1 | > 100 | > 100 | > 100 | > 100 µM | – | – | > 100 | > 100 | > 100 | > 100 µM | – | – | –
Nc1ncnc2c1N=C(c1ccccc1)CC(c1ccccc1)N2 (stereo not drawn) | > 100 | > 100 | > 100 | > 100 µM | – | > 100 | > 100 | > 100 | > 100 | > 100 µM | – | – | –
N/C(=N\N=C/c1cc([N+](=O)[O-])cc([N+](=O)[O-])c1O)NO | > 100 | > 87.3 | > 100 | > 100 µM | > 55 | > 100 | > 100 | – | > 100 | – | – | – | –
CC(C)(CC1(C)NC(=O)NC1=O)OCc1ccccc1 (stereo not drawn) | > 100 | > 100 | > 100 | > 100 µM | – | > 100 | – | > 100 | > 100 | > 100 µM | – | – | –
Brc1ccc(-c2nc(-c3ccc(Br)cc3)n(-c3ccccc3)n2)cc1 | > 100 | > 100 | – | > 100 µM | > 100 | > 100 | > 100 | > 100 | > 100 | > 100 µM | – | – | –
